Patent US11618747B2, “LXR modulators with bicyclic core moiety” (OrsoBio, Inc., priority 2018, dated 2023)
pEC50: −log10 of the molar value.

Tests used:
[1] = molecular target: T1, LXRβ ligand-binding domain (Homo sapiens, UniProt P55055, DUP175-175); assay: TR-FRETβ activity assay (NCoA3 coactivator peptide recruitment); format: biochemical; conditions: TR-FRET, 1 μM 24(S)-25-epoxycholesterol prestimulation; read-out: FRETβ (EC50 range)
T1 construct: amino acids 156-461; NP009052; made in house; host or cells: E. coli
T1 sequence (P55055 with tags, fused parts or gaps DUP175-175 limits assumed): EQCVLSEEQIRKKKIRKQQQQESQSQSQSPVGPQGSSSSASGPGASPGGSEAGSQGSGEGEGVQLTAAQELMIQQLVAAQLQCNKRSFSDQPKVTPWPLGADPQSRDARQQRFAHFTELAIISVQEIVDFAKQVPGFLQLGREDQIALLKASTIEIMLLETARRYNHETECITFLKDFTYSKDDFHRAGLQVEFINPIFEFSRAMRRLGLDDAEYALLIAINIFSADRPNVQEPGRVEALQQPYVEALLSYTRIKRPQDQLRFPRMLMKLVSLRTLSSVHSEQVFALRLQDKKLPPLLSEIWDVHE
Method: (§1) The tested compounds were usually dissolved, tested and stored as 20 mM stock solutions in DMSO. Since sulfonyl acetic acid derivatives tend to decarboxylate under these conditions, these stock solutions were prepared, tested and stored as 20 mM DMSO stock solutions containing 100 mM trifluoroacetic Acid (5 equivalents). Sulfonyl acetic acid derivatives are shelf stable as solid at rt for long time as reported by Griesbrecht et al. (Synlett 2010:374) or Faucher et al. (J. Med. Chem. 2004; 47:18).
Recombinant GST-LXRPβ ligand-binding domain (LBD; amino acids 156-461; NP009052; SEQ ID NO:4) was expressed in E. coli and purified via gluthatione-sepharose affinity chromatography. N-terminally biotinylated NCoA3 coactivator peptide (SEQ ID NO:7) was chemically synthesized (Eurogentec). Assays were done in 384 well format (final assay volume of 25 μL/well) in a Tris/HCl buffer (pH 6.8) containing KCl, bovine serum albumin, Triton-X-100 and 1 μM 24(S)-25-epoxycholesterol as LXR-prestimulating agonist. Assay buffer was provided and test articles (potential LXR inverse agonists) were titrated to yield final assay concentrations of 50 μM, 16.7 μM, 5.6 μM, 1.9 μM, 0.6 μM, 0.2 μM, 0.07 μM, 0.02 μM, 0.007 μM, 0.002 μM with one vehicle control. Finally, a detection mix was added containing anti GST-Tb cryptate (CisBio; 610SAXLB) and Streptavidin-XL665 (CisBio; 610SAXLB) as fluorescent donor and acceptor, respectively, as well as the coactivator peptide and LXRβ-LBD protein (SEQ ID NO:4). The reaction was mixed thoroughly, equilibrated for 1 h at 4° C. and vicinity of LXRβ and coactivator peptide was detected by measurement of fluorescence in a VictorX4 multiplate reader (PerkinElmer Life Science) using 340 nm as excitation and 615 and 665 nm as emission wavelengths. Assays were performed in triplicates.
Final Assay Concentrations of Components:
240 mM KCl, 1 μg/μL BSA, 0.002% Triton-X-100, […] anti GST-Tb cryptate, 2.5 ng/μL Streptavidin-XL665, coactivator peptide (400 nM), LXRβ protein (530 μg/mL, i.e. 76 nM).

full length (FL) LXRβ = molecular target: T2, full length (FL) LXRβ (Homo sapiens, UniProt P55055, DUP175-175); assay: LXR Gal4 reporter transient transfection assay (FL-M2H Gal4β); format: cell-based; conditions: HEK293 cells, full length LXRβ; read-out: FL-M2H Gal4β (EC50 range)
T2 construct: the full length (FL) proteins of LXRα (amino acids 1-447); NP005684; NP009052; expressed in transfected cells; host or cells: HEK293
T2 sequence (P55055 with tags, fused parts or gaps DUP175-175): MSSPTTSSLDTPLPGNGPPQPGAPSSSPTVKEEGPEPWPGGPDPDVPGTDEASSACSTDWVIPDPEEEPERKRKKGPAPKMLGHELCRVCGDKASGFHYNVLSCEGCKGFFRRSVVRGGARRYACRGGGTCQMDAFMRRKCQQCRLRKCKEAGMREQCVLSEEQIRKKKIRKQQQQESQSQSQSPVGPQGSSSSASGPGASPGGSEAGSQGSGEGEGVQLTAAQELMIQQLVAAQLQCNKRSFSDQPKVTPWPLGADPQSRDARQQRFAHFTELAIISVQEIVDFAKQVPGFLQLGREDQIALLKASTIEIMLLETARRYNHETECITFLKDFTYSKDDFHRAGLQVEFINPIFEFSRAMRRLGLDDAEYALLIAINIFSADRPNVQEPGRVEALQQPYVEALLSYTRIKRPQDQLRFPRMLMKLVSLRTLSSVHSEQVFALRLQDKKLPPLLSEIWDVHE
Method: as §1
LXR Gal4 Reporter Transient Transfection Assays
LXRα and LXRβ activity status was determined via detection of interaction with coactivator and corepressor proteins in mammalian two-hybrid experiments (M2H). For this, via transient transfection the full length (FL) proteins of LXRα (amino acids 1-447; NP005684; SEQ ID NO:1) or LXRβ-(amino acids 1-461; NP009052; SEQ ID NO:2) or the ligand-binding domains (LBD) of LXRα (amino acids 155-447 SEQ ID NO:3) or LXRβ (amino acids 156-461; SEQ ID NO:4) were expressed from pCMV-AD (Stratagene) as fusions to the transcriptional activation domain of NFkB. As cofactors, domains of either the steroid receptor coactivator 1 (SRC1; amino acids 552-887; SEQ ID NO:5) or of the corepressor NCoR (amino acids 1906-2312; NP006302; SEQ ID NO:6) were expressed as fusions to the DNA binding domain of the yeast transcription factor GAL4 (from pCMV-BD; Stratagene). Interaction was monitored via activation of a coexpressed Firefly Luciferase Reporter gene under control of a promoter containing repetitive GAL4 response elements (vector pFRLuc; Stratagene). Transfection efficiency was controlled via cotransfection of constitutively active pRL-CMV Renila reniformis luciferase reporter (Promega). HEK293 cells were grown in minimum essential medium (MEM) with 2 mM L-glutamine and Earle's balanced salt solution supplemented with 8.3% fetal bovine serum, 0.1 mM non-essential amino acids, 1 mM sodium pyruvate, at 37° C. in 5% CO2. 3.5×10^4 cells/well were plated in 96-well cell culture plates in growth medium supplemented with 8.3% fetal bovine serum for 16-20 h to ˜90% confluency. For transfection, medium was taken off and LXR and cofactor expressing plasmids as well as the reporter plasmids are added in 30 μL OPTIMEM/well including polyethylene-imine (PEI) as vehicle. Typical amounts of plasmids transfected/well: pCMV-AD-LXR (5 ng), pCMV-BD-cofactor (5 ng), pFR-Luc (100 ng), pRL-CMV (0.5 ng). Compound stocks were prepared in DMSO, prediluted in MEM to a total volume of 120 μL, and added 4 h after addition of the transfection mixture (final vehicle concentration not exceeding 0.2%). Cells were incubated for additional 16 h, lysed for 10 min in 1× Passive Lysis Buffer (Promega) and Firefly and Renilla luciferase activities were measured sequentially in the same cell extract using buffers containing D-luciferine and coelenterazine, respectively. Measurements of luminescence were done in a BMG-luminometer.

Compound | pEC50 [1] | pEC50 (full length (FL) LXRβ)
Cc1ccc(S(=O)(=O)n2c(-c3cccc(N4CC(C(=O)O)C4)c3)c(-c3ccsc3/C=N/O)c3cc(F)ccc32)cc1 [3/7] | 5.00 to 6.00 | > 7.00
Cc1ccc(S(=O)(=O)n2c(-c3cccc(S(=O)(=O)CC(=O)O)c3)c(-c3ccsc3C#N)c3ccccc32)cc1 [3/15] | 5.00 to 6.00 | 
Cc1ccc(S(=O)(=O)n2c(-c3cccc(N4CC(C(=O)O)C4)c3)c(-c3ccsc3C(=O)N(C)C)c3cc(F)ccc32)cc1 [3/28] | < 5.00 | 5.00 to 6.00
Cc1ccc(S(=O)(=O)n2c(-c3cccc(-c4ccc(C(N)=O)cc4)c3)c(-c3ccsc3C#N)c3cc(F)ccc32)cc1 [6/2] | 6.00 to 7.00 | > 7.00
Cc1cccc(C#N)c1-c1c(-c2cccc(-c3ccc(C(=O)O)cc3Cl)c2)n(S(=O)(=O)c2ccc(C(F)F)cc2)c2ccc(F)cc12 [11/36, 2-chloro-3′-(3-(2-cyano-6-methylphenyl)-1-((4-(difluoro-methyl)phenyl)sulfonyl)-5-fluoro-1H-indol-2-yl)-[1,1′-biphenyl]-4-carboxylic Acid] | > 7.00 | > 7.00
N#Cc1cccc(C#N)c1-c1c(-c2cccc(-c3ccc(C(=O)O)cc3)c2)n(S(=O)(=O)c2ccc(C(F)F)cc2)c2ccc(F)cc12 [11/50] | > 7.00 | > 7.00
N#Cc1sccc1-c1c(-c2cccs2)n(S(=O)(=O)c2ccc(Cl)cc2)c2cc(OCC(=O)O)ccc12 [15/3] | < 5.00 | 
N#Cc1sccc1-c1c(-c2ccccc2)n(S(=O)(=O)c2ccc(CC(=O)O)cc2)c2ccccc12 [27/1] | 5.00 to 6.00 | 
N#Cc1sccc1-c1c(-c2ccccc2)n(S(=O)(=O)c2ccc(-c3cccc(C(=O)O)c3)cc2)c2ccccc12 [27/2] | 5.00 to 6.00 | 
N#Cc1sccc1-c1c(-c2ccccc2)n(S(=O)(=O)c2ccc(CC(=O)O)s2)c2ccccc12 [27/3] | < 5.00 | 
Cn1cnc(S(=O)(=O)n2c(-c3cccc(C4CC4C(=O)O)c3)c(-c3ccsc3C#N)c3ccccc32)c1 (stereo not drawn) [30/10] | < 5.00 | 
Cc1ccc(S(=O)(=O)n2c(-c3cccc(-c4ccc(CN(C)C)cc4Cl)c3)c(-c3ccsc3C#N)c3cc(F)ccc32)cc1 [Example 2, 3-(2-(2′-Chloro-4′-((dimethylamino)methyl)-[1,1′-biphenyl]-3-yl)-5-fluoro-1-tosyl-1H-indol-3-yl)thiophene-2-carbonitrile] | 6.00 to 7.00 | > 7.00
Cc1ccc(S(=O)(=O)n2c(-c3cccc(-c4cncc(S(=O)(=O)CC(=O)O)c4)c3)c(-c3ccsc3C#N)c3ccccc32)cc1 [Example 5, 2-((5-(3-(3-(2-Cyanothiophen-3-yl)-1-tosyl-1H-indol-2-yl)phenyl)pyridin-3-yl)sulfonyl)acetic Acid] | 6.00 to 7.00 | 5.00 to 6.00
Cc1ccc(S(=O)(=O)n2c(-c3cccc(-c4ccc(C(=O)NO)cc4)c3)c(-c3ccsc3C#N)c3cc(F)ccc32)cc1 [Example 6, 3′-(3-(2-Cyanothiophen-3-yl)-5-fluoro-1-tosyl-1H-indol-2-yl)-N-hydroxy-[1,1′-biphenyl]-4-carboxamide] | 6.00 to 7.00 | > 7.00
Cc1ccc(S(=O)(=O)n2c(-c3cccc(-c4ccc(C(=O)NCCS(=O)(=O)O)cc4Cl)c3)c(-c3ccsc3C#N)c3cc(F)ccc32)cc1 [Example 10, 2-(2-Chloro-3′-(3-(2-cyanothiophen-3-yl)-5-fluoro-1-tosyl-1H-indol-2-yl)-[1,1′-biphenyl]-4-carboxamido)ethane-1-sulfonic Acid] | 6.00 to 7.00 | 6.00 to 7.00
Cc1ccc(S(=O)(=O)n2c(-c3cccc(-c4ccc(C(=O)O)cc4Cl)c3)c(-c3ccccc3C#N)c3cc(F)ccc32)cc1 [Example 11, 2-Chloro-3′-(3-(2-cyanophenyl)-5-fluoro-1-tosyl-1H-indol-2-yl)-[1,1′-biphenyl]-4-carboxylic acid] | > 7.00 | > 7.00
Cc1ccc(S(=O)(=O)n2c(-c3cccc(-c4cc(C)c(C(=O)O)cc4Cl)c3)c(-c3ccsc3C#N)c3cc(F)ccc32)cc1 [Example 12, 2-Chloro-3′-(3-(2-cyanothiophen-3-yl)-5-fluoro-1-tosyl-1H-indol-2-yl)-5-methyl-[1,1′-biphenyl]-4-carboxylic acid] | 6.00 to 7.00 | > 7.00
N#Cc1sccc1-c1c(-c2cccs2)n(S(=O)(=O)c2ccc(Cl)cc2)c2cc(C(=O)O)ccc12 [Example 19, 1-((4-Chlorophenyl)sulfonyl)-3-(2-cyanothiophen-3-yl)-2-(thiophen-2-yl)-1H-indole-6-carboxylic Acid] | < 5.00 | 
Cc1ccc(S(=O)(=O)n2c(-c3cccc(-c4cnc(C(=O)O)cc4C)c3)c(-c3ccsc3C#N)c3cc(F)ccc32)cc1 [Example 36, 5-(3-(3-(2-Cyanothiophen-3-yl)-5-fluoro-1-tosyl-1/indol-2-yl)phenyl)-4-methylpicolinic Acid] | 5.00 to 6.00 | 6.00 to 7.00
Cc1ccc(S(=O)(=O)n2c(-c3cccc(-c4ccc(-c5nnn[nH]5)cc4Cl)c3)c(-c3ccsc3C#N)c3cc(F)ccc32)cc1 [Example 37, 3-(2-(2′-Chloro-4′-(1H-tetrazol-5-yl)-[1,1′-biphenyl]-3-yl)-5-fluoro-1-tosyl-1H-indol-3-yl)thiophene-2-carbonitrile] | 6.00 to 7.00 | > 7.00
